From US20070087378A1, “Polynucleotide and polypeptide fat metabolism regulators and uses thereof” (priority 2002, published 2007)
Entries after “also recorded” stand apart in the source; their conditions may differ.

Assays:
lpo-1 mutant nematodes = tested on: lpo-1 mutant nematodes; design: species or system C. elegans; conditions: in vivo
C. elegans = assay: Growth rate, brood-size, pharyngeal pumping, dauer formation, dauer recovery and lifespan assays; conditions: concentrations between 0.001 μg/ml and 25 μg/ml
[1] = tested on: tub-1(nr2004) mutant nematodes; design: species or system C. elegans; conditions: in vivo
nematode progeny = assay: Continuous AICAR treatment: growth and development of nematode progeny; conditions: relative to untreated control progeny
Procedure: Adult wild-type nematodes, daf-2 (e1370), tph-1(mg280), and tub-1(nr2004) mutant nematodes were treated with 500 μM AICAR, and their fat content was detected using Nile Red as described above. […] To determine whether the effects of AICAR were reversible, AICAR-treated nematodes were then moved to culture plates without AICAR. […] The effect of continuous AICAR treatment was tested by seeding AICAR plates with five hermaphrodites, and then monitoring the effect of AICAR on the growth and development of nematode progeny relative to untreated control progeny.

wild-type nematodes = assay: Nile Red fat staining of wild-type nematodes (feeding RNAi screen; compound treatment); assay type: in vivo, C. elegans
[2] = tested on: daf-2(e1370) mutant nematodes; design: species or system C. elegans; conditions: in vivo
[3] = tested on: tph-1(mg280) mutant nematodes; assay: Nile Red fat staining of tph-1(mg280) nematodes (RNAi epistasis analysis; compound treatment); assay type: in vivo, C. elegans; conditions: adult tph-1(mg280) nematodes, 500 μM

## CC[C@H](C)C(=O)O[C@H]1C[C@@H](C)C=C2C=C[C@H](C)[C@H](CC[C@@H]3C[C@@H](O)CC(=O)O3)[C@H]21 [mevinolin]
lpo-1 mutant nematodes
  fat content / fat accumulation by Nile Red staining: reduced; also recorded: decreased fat accumulation

## CCN(CC)c1ccc2nc3c4ccccc4c(=O)cc-3oc2c1 [Nile Red, 9-diethylamino-5H-benzo[α]phenoxazine-5-one]
C. elegans
  adverse effects on growth rate, brood-size, pharyngeal pumping, dauer formation, dauer recovery, or lifespan: No adverse effects

## NC(=O)c1ncn([C@@H]2O[C@H](CO)[C@@H](O)[C@H]2O)c1N [AICAR, 5-aminoimidazole-4-carbozamide ribonucleoside]
[1]
  fat content relative to untreated control nematodes: progressive reduction in fat content
Nematode progeny
  effect on growth and development of progeny: dramatic retardation of larval growth accompanied by depleted fat stores
wild-type nematodes; 500 μM, wild-type and daf-2, tph-1, tub-1 mutant nematodes
  time at which reduction in fat content was detectable: twenty-four
wild-type nematodes; adult wild-type nematodes, 500 μM
  fat content relative to untreated control nematodes: progressive reduction in fat content
wild-type nematodes; treated nematodes moved to culture plates without AICAR
  reversibility of fat reduction: regained their fat content
[2]
  fat content relative to untreated control nematodes: progressive reduction in fat content
[3]
  fat content relative to untreated control nematodes: progressive reduction in fat content
